pEC50, pIC50: −log10 of the molar value.
Assays:
[1] = target: T1, recombinant PfCDPK1 T145M (Plasmodium falciparum, UniProt P62344, T145M); test: BKI library screening, in vitro kinase assay (KinaseGlo); type: biochemical; conditions: methionine gatekeeper mutant T145M; 10 µM ATP, 90 min at 30°C; read-out: PfCDPK1Met IC50
T1 construct: Full-length CDPK1 WT and five mutant proteins with different substitutions at the gatekeeper position (residue 145) were expressed in E. coli; made in house; host or cells: Escherichia coli BLR(DE3)pLysS, pGEX4T1
Procedure: (§1) Recombinant PfCDPK1 WT and PfCDPK1 T145M were used in the in vitro kinase assay to calculate the IC50s for the library of bumped kinase inhibitors. Thirty-one BKIs belonging to the pyrazolopyrimidine scaffold were screened ([18][–][21]). Protein kinase activity of recombinant enzymes was assayed using 20 µM synthetic peptide substrate […] […] These reactions were performed in a buffered solution containing 1 mM EGTA (pH 7.2), 10 mM MgCl2, 20 mM HEPES (pH 7.5), 0.1% BSA, and enzyme activation reagent containing 2 mM CaCl2. The reactions were initiated with addition of 10 µM ATP, and the reaction mixtures were incubated for 90 min at 30°C. […] The KinaseGlo (Promega, Madison, WI) luminescence-based assay, in which luminescence is inversely related to kinase activity and directly related to […], was used as previously described ([21]).

[2] = target: T2, recombinant PfCDPK1 WT (Plasmodium falciparum, UniProt P62344); test: as above; type: biochemical; conditions: 10 µM ATP, 90 min at 30°C; two independent experiments in triplicate
T2 construct: made in house; host or cells: Escherichia coli BLR(DE3)pLysS, pGEX4T1
Procedure: as §1

[3] = target: recombinant P. falciparum cGMP-dependent protein kinase (PfPKG) (Plasmodium falciparum, UniProt Q8I719); test: PfPKG in vitro kinase activity assay (luminescence); type: biochemical; conditions: 2 µM ATP, 20 µM cGMP, 2 h at 30°C; read-out: IC50 (SD) for PfPKG
Procedure: Compound efficacy against recombinant P. falciparum cGMP-dependent protein kinase (PfPKG) was determined using a novel nonradioactive and high-throughput assay. This assay evaluates protein kinase activity by measuring changes in […] ATP concentration via luminescence after PfPKG enzyme phosphorylation of a peptide substrate, PKCtide ([…]) (SignalChem, Richmond, BC, Canada). The in vitro kinase assay was set up with 26 µM PKCtide, 30 nM PfPKG, and 20 µM cGMP in a buffered solution containing 20 mM β-glycerol phosphate, 20 mM MgCl2, 25 mM HEPES (pH 7.5) (KOH), 0.1% bovine serum albumin (BSA), and 2 mM DTT ([37]). The reaction was initiated with addition of 2 µM ATP. The reaction mixture was incubated at 30°C and 90-rpm agitation for 2 h. Reaction wells with no PfPKG, no peptide substrate, and no cGMP were included in each assay plate as internal negative controls.

[4] = system: wild-type parasites (P. falciparum NF54); test: Asexual parasite growth inhibition (SYBR green I assay); type: cell-based, Plasmodium falciparum; conditions: BKIs
[5] = system: recombinant PfCDPK1 WT; test: BKI library screening, in vitro kinase assay (KinaseGlo); type: biochemical, Plasmodium falciparum; conditions: PfCDPK1 WT vs T145M recombinant enzymes
Procedure: as §1

[6] = system: CDPK1 T145M parasites; test: Asexual parasite growth inhibition (SYBR green I assay); type: cell-based, Plasmodium falciparum; conditions: BKIs
Procedure: The parasites were electroporated as described earlier ([39]). Briefly, the ring-stage parasites at ~5% parasitemia were electroporated with 50 μg each of pL6CK1Met or pL6CK1Ser plasmid and pUF1 plasmid with the settings of 0.31 kV, 960 μF, and maximum capacitance on a Bio-Rad Gene Pulser II. WR99210 and DSM267 ([40]) were applied at the concentrations of 2 and 150 nM, respectively, after 24 h of transfection. The transgenic PfCDPK1 T145M parasites were cloned by limiting dilution in a 96-well plate. The PfCDPK1 gene sequence was amplified using primers ck1f1 (5′ […] 3′) and ck1r3wt (5′ […] 3′) specific for the region outside the homology arm of the plasmid, and the desired mutation was confirmed by DNA sequencing.
Asexual parasites were synchronized for two consecutive cycles by sorbitol treatment ([41]) and set up at 0.2% trophozoite stage (30 to 36 h postinvasion) in a 96-well plate. The growth progression was monitored for 7 days, and the growth rate of the parasites was calculated by sampling the culture every 24 h and measuring the fluorescence readout using the SYBR green I assay as described earlier ([42], [43]).

[7] = system: wild-type T. gondii parasites; set-up: method as in PMID 20436472, PMID 20485436; conditions: cited from earlier work

Chain of recombinant P. falciparum cGMP-dependent protein kinase (PfPKG) (Q8I719 whole entry): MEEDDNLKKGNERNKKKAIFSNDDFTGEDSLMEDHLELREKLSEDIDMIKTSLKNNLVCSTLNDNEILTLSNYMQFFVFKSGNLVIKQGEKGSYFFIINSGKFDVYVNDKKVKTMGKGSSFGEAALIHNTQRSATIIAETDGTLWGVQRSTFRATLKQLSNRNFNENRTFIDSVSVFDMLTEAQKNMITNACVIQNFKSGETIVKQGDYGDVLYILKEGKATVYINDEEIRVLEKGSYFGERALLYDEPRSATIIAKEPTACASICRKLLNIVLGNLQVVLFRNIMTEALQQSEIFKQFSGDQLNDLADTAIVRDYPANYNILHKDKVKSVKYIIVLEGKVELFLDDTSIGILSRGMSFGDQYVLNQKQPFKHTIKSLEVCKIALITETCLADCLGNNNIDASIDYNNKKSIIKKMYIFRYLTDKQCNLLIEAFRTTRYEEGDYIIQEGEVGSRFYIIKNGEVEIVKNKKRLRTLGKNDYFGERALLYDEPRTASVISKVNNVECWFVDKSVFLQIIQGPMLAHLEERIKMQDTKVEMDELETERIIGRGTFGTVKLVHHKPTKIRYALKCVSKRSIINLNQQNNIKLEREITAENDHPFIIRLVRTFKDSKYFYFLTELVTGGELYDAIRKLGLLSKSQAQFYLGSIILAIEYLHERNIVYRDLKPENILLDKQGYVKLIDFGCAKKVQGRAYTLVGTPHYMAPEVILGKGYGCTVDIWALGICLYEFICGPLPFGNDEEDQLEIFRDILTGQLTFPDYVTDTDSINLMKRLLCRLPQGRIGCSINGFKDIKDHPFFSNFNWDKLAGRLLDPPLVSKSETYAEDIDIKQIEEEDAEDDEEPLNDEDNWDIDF
T1 sequence (P62344 whole entry T145M): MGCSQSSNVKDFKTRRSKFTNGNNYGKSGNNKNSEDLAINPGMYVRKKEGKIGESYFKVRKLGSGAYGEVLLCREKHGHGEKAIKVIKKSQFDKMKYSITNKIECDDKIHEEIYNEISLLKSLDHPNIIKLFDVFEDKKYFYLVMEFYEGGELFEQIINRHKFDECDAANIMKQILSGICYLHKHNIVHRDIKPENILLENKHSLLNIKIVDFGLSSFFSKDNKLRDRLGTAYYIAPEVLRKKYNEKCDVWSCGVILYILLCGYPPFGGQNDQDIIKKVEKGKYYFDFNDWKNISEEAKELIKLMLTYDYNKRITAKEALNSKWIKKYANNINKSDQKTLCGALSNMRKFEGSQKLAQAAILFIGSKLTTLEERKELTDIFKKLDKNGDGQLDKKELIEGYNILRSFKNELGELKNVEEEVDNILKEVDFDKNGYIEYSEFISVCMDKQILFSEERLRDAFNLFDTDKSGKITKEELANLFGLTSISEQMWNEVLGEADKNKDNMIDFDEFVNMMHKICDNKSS
T2 sequence (P62344 whole entry): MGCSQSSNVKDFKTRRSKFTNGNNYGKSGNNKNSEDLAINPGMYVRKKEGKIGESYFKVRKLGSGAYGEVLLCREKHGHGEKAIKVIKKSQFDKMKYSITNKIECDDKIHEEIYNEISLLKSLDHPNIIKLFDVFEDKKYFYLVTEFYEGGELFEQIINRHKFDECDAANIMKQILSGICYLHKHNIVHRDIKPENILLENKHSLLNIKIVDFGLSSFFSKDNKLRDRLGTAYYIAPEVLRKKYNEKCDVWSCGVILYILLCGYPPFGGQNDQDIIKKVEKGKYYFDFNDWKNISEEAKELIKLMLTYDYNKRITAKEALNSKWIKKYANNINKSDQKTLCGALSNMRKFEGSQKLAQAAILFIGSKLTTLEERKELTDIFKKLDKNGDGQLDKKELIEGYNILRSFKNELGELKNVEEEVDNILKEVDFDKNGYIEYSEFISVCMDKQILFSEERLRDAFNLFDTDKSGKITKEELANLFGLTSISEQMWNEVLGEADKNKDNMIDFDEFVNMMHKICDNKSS

| Compound | pIC50 [1] | pIC50 [2] | pIC50 [3] | pEC50 [4] | fold-greater effect in vitro on wild-type enzyme than on methionine mutant [5] [fold] | pEC50 [6] | effect on microneme secretion and invasion of host cells [7] |
| --- | --- | --- | --- | --- | --- | --- | --- |
| CCOc1ccc2cc(-c3nn(CC4CCN(C)CC4)c4ncnc(N)c34)ccc2n1 [compound 1369] | < 5.70 | 6.36 | < 5.70 |  |  |  |  |
| CCOc1ccc2cc(-c3nn(CC4CCN(C)CC4)c4ncnc(N)c34)ccc2c1 [compound 1294] | < 5.70 | 6.79 | 6.58 | 4.96 | 10 | 5.16 |  |
| Cc1cccc(Cc2nn(C(C)(C)C)c3ncnc(N)c23)c1 [3MBPP1] |  |  |  |  |  |  | block in microneme secretion and subsequent invasion of host cells |
